In assay [1] the target is T1, MRGPRX2 (Homo sapiens, UniProt Q96LB1).
T1 sequence (Q96LB1 1-330): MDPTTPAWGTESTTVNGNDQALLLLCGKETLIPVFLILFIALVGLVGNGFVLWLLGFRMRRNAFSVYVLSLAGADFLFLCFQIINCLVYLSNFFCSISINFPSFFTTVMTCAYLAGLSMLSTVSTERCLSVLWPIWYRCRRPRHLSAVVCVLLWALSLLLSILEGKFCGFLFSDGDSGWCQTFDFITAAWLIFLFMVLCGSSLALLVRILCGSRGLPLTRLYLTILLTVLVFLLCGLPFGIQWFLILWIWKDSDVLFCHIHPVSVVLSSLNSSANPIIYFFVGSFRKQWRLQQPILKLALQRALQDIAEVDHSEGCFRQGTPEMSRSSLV
Briefly: MRGPRX2 β-Arrestin recruitment assay (PathHunter). It is filed as cell-based. Also on record: host or cells: CHO-K1 (PathHunter). The settings on record: PathHunter CHO-K1 MRGPRX2 β-Arrestin cell line; agonist Cortistatin 14 0.25 μM. From the text: Example C: MRGPRX2 P-Arrestin Assay
This assay measures compound inhibition of P-Arrestin recruitment, which is part of the G protein-independent pathway that results from the ligand-activated GPCR phosphorylation by specific GPCR kinases. The PathHunter CHO-K1 MRPGRX2 B-Arrestin Cell line stably expressing ProLink tagged MRGPRX2 and Enzyme Acceptor Tagged B-Arrestin was purchased from Eurofins DiscoverX, (Fremont, CA).
The cells were maintained in culture medium from the Europhins DiscoverX Cell Culture Kit-107 which includes FBS, hygromycin B and G418. For the assay, the cells were harvested and were resuspended with Cell Plating Reagent 2 (Eurofins DiscoverX). Cells were added 10000 cells in 25 μL/well to a 384-well black cell culture plate (Greiner VWR, Radnor, PA) which contained 125 nL/well of compound at a selected serially diluted concentration range or DMSO. The plate was incubated at 37° C. with 5% CO2 for 1 h. 2 μL/well of agonist Cortistatin 14 was diluted in Protein Dilution Buffer, (Eurofins DiscoverX) for a final concentration of 0.25 μM, was added and the plate was incubated at 37° C. with 5% CO2 for 90 min. 14 μL/well of Detection Reagent Mix (PathHunter Detection Kit, Eurofins DiscoverX) was added to the plates and further incubated for 1 h in the dark. Plates were read on the PHERAstar microplate reader (BMG Labtech Cary, NC) measuring luminescence 0.1 to 1 second per well. Data was normalized using DMSO only wells and wells with high concentration of reference antagonist as controls. Compound IC50 curves were globally fitted with 3- or 4-parameter Hill equation in a Genedata Screener (Genedata Basel, Switzerland).
A general note: Arrestin recruitment assays detect the binding of arrestin to an activated receptor.

In assay [2] the target is T1, MRGPRX2. Put plainly: MRGPRX2 IP1 HTRF assay. It is filed as cell-based. Also on record: host or cells: CHO-K1. The settings on record: CHO-K1 cells stably expressing human MRGPRX2; IP1 accumulation; agonist Cortistatin 14 1 μM. From the text:
Example B: MRGPRX2 IP1 HTRF Assay
This assay measures compound inhibition of myo-Inositol 1 phosphate (IP1) accumulation in CHO-K1 cells. Chinese hamster ovary (CHO-K1) cells stably expressing human MRGPRX2 were purchased from GenScript (Piscataway, NJ).
For the HTRF IP1 determination, an IP-One GqKit (Perkin Elmer Cisbio, Waltham, MA), which includes all reagents and buffers in this protocol, was used. The cells were maintained in culture medium (Ham's F-12K) containing 10% (v/v) FBS, and 200 μg/mL Zeocin. For the assay, the cells were harvested and resuspended in culture medium with 2% FBS and without Zeocin, then were passed through a 40 μm filter. Cells were added at 20000 cells in a 5 μL/well to a 384-well white small volume cell culture plate (Greiner VWR, Radnor, PA) which contained 50 nL/well of test compound serially diluted at a selected concentration range in DMSO. 5 μL/well of prepared 2× Stimulation Buffer2 was then added to plates and was incubated at 37° C. with 5% CO2 for 1 h. 5 μL/well of agonist Cortistatin 14 (Bio-TechneR&D Systems, Minneapolis, MN) in 1× Stimulation Buffer2, for a 1 μM final concentration, was then added to plates and incubated at 37° C. with 5% CO2 for 1 h. 6 μL/well of 1:20 diluted Detection Reagent Mix (d2 and Cryptate) was added to the plates and incubated for 1 h in the dark. Plates were read on the PHERAstar microplate reader (BMG Labtech Cary, NC) to determine the HTRF ratio of the acceptor and donor emission signals. The IP1 concentrations were calculated from a standard curve following the IP-One GQ kit instructions. Wells with DMSO only and wells with high concentration of reference antagonist were used as controls for normalization. Compound IC50 curves were globally fitted with 3- or 4-parameter Hill equation in a Genedata Screener (Genedata Basel, Switzerland).

As a reminder, the IC50 is the concentration at which inhibition is half-maximal. The low end stands for greater potency in that assay, the high end for weaker potency in that assay.

For the compound `C[C@]1(O)C[C@@H](NC(=O)N2CC(CNc3cc(C(F)(F)F)nc4cc(C(F)(F)F)nn34)(c3ccc(F)cc3)C2)C1` [Example 52, 3-(((2,5-Bis(trifluoromethyl)pyrazolo[1,5-a]pyrimidin-7-yl)amino)methyl)-3-(4-fluorophenyl)-N-((1s,3s)-3-hydroxy-3-methylcyclobutyl)azetidine-1-carboxamide], the IC50 on MRGPRX2 [1] and at MRGPRX2 [2] was 0.1 to 100 nM each time.

Regarding `O=C(N[C@@H]1CC[C@@H](O)C1)N1CC(CNc2cc(C(F)(F)F)nc3cc(C(F)(F)F)nn23)(c2ccc(F)cc2)C1` [Example 53, 3-(((2,5-Bis(trifluoromethyl)pyrazolo[1,5-a]pyrimidin-7-yl)amino)methyl)-3-(4-fluorophenyl)-N-((1R,3R)-3-hydroxycyclopentyl)azetidine-1-carboxamide], the IC50 on MRGPRX2 [1] and on MRGPRX2 [2] was 0.1 to 100 nM in each case.

With `O=C(N[C@H]1CC[C@](O)(C(F)(F)F)CC1)N1CC(CNc2cc(C(F)(F)F)nc3cc(C(F)(F)F)nn23)(c2ccc(F)cc2)C1` [Example 54, 3-(((2,5-Bis(trifluoromethyl)pyrazolo[1,5-a]pyrimidin-7-yl)amino)methyl)-3-(4-fluorophenyl)-N-((1s,4s)-4-hydroxy-4-(trifluoromethyl)cyclohexyl)azetidine-1-carboxamide], the IC50 on MRGPRX2 [1] and at MRGPRX2 [2] was 0.1 to 100 nM in each case.

On to `CC(C)(O)[C@H]1CC[C@H](NC(=O)N2CC(CNc3cc(C(F)(F)F)nc4cc(C(F)(F)F)nn34)(c3ccc(F)cc3)C2)CC1` [Example 55, 3-(((2,5-Bis(trifluoromethyl)pyrazolo[1,5-a]pyrimidin-7-yl)amino)methyl)-3-(4-fluorophenyl)-N-((1r,4r)-4-(2-hydroxypropan-2-yl)cyclohexyl)azetidine-1-carboxamide], for which the IC50 at MRGPRX2 [1] and on MRGPRX2 [2] was 0.1 to 100 nM each time.

`O=C(N[C@@H]1CC[C@@H](O)C1)N1CCC(CNc2cc(C(F)(F)F)nc3cc(C(F)(F)F)nn23)(c2ccc(F)cc2)CC1` [Example 56, 4-(((2,5-Bis(trifluoromethyl)pyrazolo[1,5-a]pyrimidin-7-yl)amino)methyl)-4-(4-fluorophenyl)-N-((1R,3R)-3-hydroxycyclopentyl)piperidine-1-carboxamide]: the IC50 on MRGPRX2 [1] and on MRGPRX2 [2] was 0.1 to 100 nM in each case.

Take `N#CC12CC(NC(=O)N3CC(CNc4cc(C(F)(F)F)nc5cc(C(F)(F)F)nn45)(c4cc(F)cc(F)c4)C3)(C1)C2` [Example 65, 3-(((2,5-Bis(trifluoromethyl)pyrazolo[1,5-a]pyrimidin-7-yl)amino)methyl)-N-(3-cyanobicyclo[1.1.1]pentan-1-yl-3-3,5-difluorophenyl)azetidine-1-carboxamide]: the IC50 at MRGPRX2 [1] and on MRGPRX2 [2] was 0.1 to 100 nM throughout.

For the compound `O=C(N[C@H]1CC[C@H](O)CC1)N1CC(CNc2cc(C3CC3)nc3cc(C(F)(F)F)nn23)(c2ccc(F)cc2)C1` [Example 69, 3-(((5-Cyclopropyl-2-(trifluoromethyl)pyrazolo[1,5-a]pyrimidin-7-yl)amino)methyl)-3-(4-fluorophenyl)-N-((1r,4r)-4-hydroxycyclohexyl)azetidine-1-carboxamide], the IC50 on MRGPRX2 [1] and on MRGPRX2 [2] was 0.1 to 100 nM in each case.

In the case of `CCc1cc(NCC2(c3ccc(F)cc3)CN(C(=O)NCC(F)(F)F)C2)n2nc(C(F)(F)F)cc2n1` [Example 71, 3-(((5-Ethyl-2-(trifluoromethyl)pyrazolo[1,5-a]pyrimidin-7-yl)amino)methyl)-3-(4-fluorophenyl)-N-(2,2,2-trifluoroethyl)azetidine-1-carboxamide], the IC50 at MRGPRX2 [1] and at MRGPRX2 [2] was 0.1 to 100 nM throughout.

For the compound `CC(C)(O)CNC1CC(CNc2cc(C(F)(F)F)nc3cc(C(F)(F)F)nn23)(c2ccc(F)cc2)C1` (centres unmarked) [Example 73, 1-((3-(((2,5-Bis(trifluoromethyl)pyrazolo[1,5-a]pyrimidin-7-yl)amino)methyl)-3-(4-fluorophenyl)cyclobutyl)amino)-2-methylpropan-2-ol], the IC50 at MRGPRX2 [1] and on MRGPRX2 [2] was 0.1 to 100 nM each time.

With `CC(C)(O)CNC1CCC(CNc2cc(C(F)(F)F)nc3cc(C(F)(F)F)nn23)(c2ccc(F)cc2)CC1` (centres unmarked) [Example 74, 1-((4-(((2,5-Bis(trifluoromethyl)pyrazolo[1,5-a]pyrimidin-7-yl)amino)methyl)-4-(4-fluorophenyl)cyclohexyl)amino)-2-methylpropan-2-ol], the IC50 at MRGPRX2 [1] and at MRGPRX2 [2] was 0.1 to 100 nM throughout.

Turning to `Cn1ccc(N2CC(CNc3cc(C(F)(F)F)nc4cc(C(F)(F)F)nn34)(c3ccc(F)cc3)C2)nc1=O` [Example 90, 4-(3-(((2,5-Bis(trifluoromethyl)pyrazolo[1,5-a]pyrimidin-7-yl)amino)methyl)-3-(4-fluorophenyl)azetidin-1-yl)-1-methylpyrimidin-2(1H)-one], the IC50 at MRGPRX2 [1] and at MRGPRX2 [2] was 0.1 to 100 nM in each case.

As to `C[C@]1(O)C[C@H](NC(=O)N2CC(CNc3cc(C(F)(F)F)nc4cc(C(F)(F)F)nn34)(c3ccc(F)cc3)C2)C1` [Example 91, 3-(((2,5-Bis(trifluoromethyl)pyrazolo[1,5-a]pyrimidin-7-yl)amino)methyl)-3-(4-fluorophenyl)-N-((1r,3r)-3-hydroxy-3-methylcyclobutyl)azetidine-1-carboxamide], the IC50 on MRGPRX2 [1] and on MRGPRX2 [2] was 0.1 to 100 nM each time.

As to `O=C(NC[C@H]1C[C@H](O)C1)N1CC(CNc2cc(C(F)(F)F)nc3cc(C(F)(F)F)nn23)(c2ccc(F)cc2)C1` [Example 92, 3-(((2,5-Bis(trifluoromethyl)pyrazolo[1,5-a]pyrimidin-7-yl)amino)methyl)-3-(4-fluorophenyl)-N-(((1r,3r)-3-hydroxycyclobutyl)methyl)azetidine-1-carboxamide], the IC50 on MRGPRX2 [1] and at MRGPRX2 [2] was 0.1 to 100 nM throughout.

As to `O=C(N[C@H]1CC[C@@H]1O)N1CC(CNc2cc(C(F)(F)F)nc3cc(C(F)(F)F)nn23)(c2ccc(F)cc2)C1` [Example 93, 3-(((2,5-Bis(trifluoromethyl)pyrazolo[1,5-a]pyrimidin-7-yl)amino)methyl)-3-(4-fluorophenyl)-N-((1S,2S)-2-hydroxycyclobutyl)azetidine-1-carboxamide], the IC50 at MRGPRX2 [1] and at MRGPRX2 [2] was 0.1 to 100 nM each time.

`O=C(N[C@H]1CC[C@H](O)CC1)N1CC(CNc2cc(C(F)(F)F)nc3cc(C(F)F)nn23)(c2ccc(F)cc2)C1` [Example 98, 3-(((2-(Difluoromethyl)-5-(trifluoromethyl)pyrazolo[1,5-a]pyrimidin-7-yl)amino)methyl)-3-(4-fluorophenyl)-N-((1r,4r)-4-hydroxycyclohexyl)azetidine-1-carboxamide]: the IC50 at MRGPRX2 [1] and at MRGPRX2 [2] was 0.1 to 100 nM throughout.

Regarding `O=C(N[C@H]1CC[C@H](O)CC1)N1CC(CNc2cc(C(F)(F)F)nc3cc(C(F)(F)F)nn23)(c2ccc(F)cn2)C1` [Example 99, 3-(((2,5-Bis(trifluoromethyl)pyrazolo[1,5-a]pyrimidin-7-yl)amino)methyl)-3-(5-fluoropyridin-2-yl)-N-((1r,4r)-4-hydroxycyclohexyl)azetidine-1-carboxamide], the IC50 at MRGPRX2 [1] and at MRGPRX2 [2] was 0.1 to 100 nM throughout.

These data come from US20250084087A1, “BICYCLIC HETEROCYCLES AS MRGPRX2 ANTAGONISTS” (Incyte Corporation, priority 2023, published 2025).
